Data reported in publication PMC7569237 (Translational Oncology, 2020).

Assay: Plasma and tumor levels in MIA PaCa-2 tumor-bearing nude mice
Assay type: in vivo
Conditions: MIA PaCa-2-bearing mice, CPT-11 10 mg/kg iv; SN38 = released from CPT-11

Structure (SMILES): CCc1c2c(nc3ccc(OC(=O)N4CCC(N5CCCCC5)CC4)cc13)-c1cc3c(c(=O)n1C2)COC(=O)[C@]3(O)CC [CPT-11, 7-ethyl-10-[4-(1-piperidino)-1-piperidino]carbonyloxycamptothecin]
- Time within which concentrations rapidly decreased in plasma and tumor: ≤ 48 h

Structure (SMILES): CCc1c2c(nc3ccc(O)cc13)-c1cc3c(c(=O)n1C2)COC(=O)[C@]3(O)CC [SN38, 7-ethyl-10-hydroxycamptothecin]
- Time within which concentrations rapidly decreased in plasma and tumor: ≤ 48 h
